Patent US10730851B2, “Polymorph of triaryldimethylpiperazine dihydrochloride and preparation method and application thereof” (priority 2016, dated 2020)
Converted amounts (≈) assume the structure as drawn.

Experiments:
[1] = test system: SPF-grade SD rats; test: Forced swimming test; assay type: in vivo; conditions: 40 mg/kg Ip, three times (23.5 h, 5 h, 1 h before test), x ± SEM
Experimental: Forced swimming test is used to test the antidepressant effects of polymorph forms P, F, O, B and J.
the swimming test equipment is a transparent glass round cylinder with a height of 46 cm and an inner diameter of 20 cm, the test water temperature is 23° C.˜25° C., the test water depth is 30 cm, and each cylinder is used only once.
300 mg of a polymorph form P is weighed with an electronic balance, and the polymorph form P is dissolved with 0.9% normal saline, and finally the volume is fixed to 100 mL with 0.9% normal saline, at this time, the concentration of dihydrochloride in the experimental reagent is 3 mg/mL for later use.
600 mg of a polymorph form P is weighed with an electronic balance, and the polymorph form P is dissolved with 0.9% normal saline, and finally the volume is fixed to 100 mL with 0.9% normal saline, at this time, the concentration of dihydrochloride in the experimental reagent is 6 mg/mL for later use.
400 mg of desipramine (DMI) is weighed with an electronic balance, DMI is dissolved with 0.9% normal saline, and then the volume is fixed to 100 mL with 0.9% normal saline for later use.
Forty SPF-grade SD rats are prepared and randomly divided into 4 groups, namely vehicle control group, positive control group, experimental group 1 and experimental group 2, with 10 rats in each group. The day before the test, the rats were placed in water for 15 min to pre-swim for 15 min in advance to adapt to the swimming test environment, then taken out and dried, placed in the cage under an infrared lamp for 15 min and then placed in the original cage. After 24 h, a formal swimming test is conducted, that is, the rats are put into water again after 24 h, and the rats are continuously observed for 5 min. The swimming process are needed to be photographed. The drug is administered during two swimming sessions.
The positive control group containing DMI is administered three times, at 23.5 h, 5 h and 1 h before the formal swimming test respectively. Vehicle control group, experimental group 1 and experimental group 2 are each administered only once and subcutaneously within 1 h.
The behaviors of the rats are scored by the scorer every 5 seconds after recording the experiment.
1) Static—when the rat floats on the water surface without struggling and moves only to keep its head above the water surface, the rat is evaluated as static;
2) Swimming—if the rats have obvious swimming behaviors, not only to keep their heads above the water surface, or to travel around in a round cylinder, they are evaluated as swimming;
3) Wall climbing—the rats' front paws have obvious behavior of entering and leaving the water surface, usually, rats are evaluated as wall climbing in front of the round cylinder wall.
All behavioral are scored by a single person. To avoid bias of observation, the scorer only observed and scored without knowing the administration situations. Then multiple test fragments are randomly selected, and the scorer will score the second round to determine the accuracy of observation. The test video is scored again by the second scorer to determine the accuracy between scorers. The second scorer are also required to observe without knowing the drug administration. Finally, in order to determine the effectiveness of the method, the first scorer scored again and recorded the duration of various behaviors with a stopwatch.
SPSSwin11.0 software is used for variance analysis. One-way variance analysis is used for homogeneity of variance, and Dunnett test is used for heterogeneity of variance.

[2] = Relative bioavailability test; assay type: in vivo, SPF-grade SD rats; conditions: rats, 20 mg/kg·bw by gavage in 0.5% CMC-Na, x ± s, n = 6, 20 mg/kg
Experimental: HPLC-MS/MS method is used to detect the blood drug concentration of target drugs in SPF-grade SD rats, and the relative bioavailability of 0.5% CMC-Na suspension of a free base and 0.5% CMC-Na solution of a polymorph form P are calculated and compared.
60.46 mg of a free base is accurately weighed and placed into a 15 mL centrifuge tube, 12 mL of 0.5% CMC-Na solution is measured and added into the centrifuge tube with a measuring cylinder, vortexed for 5 min, and ultrasonically dispersed for 15 min to obtain 0.5% CMC-Na suspension of free base with a concentration of 5.04 mg/ml, which is currently formulated when using and vibrated at any time during administration.
60.05 mg of a polymorph form P is accurately weighed and placed into a 15 mL centrifuge tube, 12 mL of 0.5% CMC-Na solution is measured and added into the centrifuge tube with a measuring cylinder, vortexed for 5 min, and ultrasonically dispersed for 15 min to obtain 0.5% CMC-Na solution of 5.00 mg/mL polymorph form P, which is currently formulated when using.
Twelve SPF-grade SD rats are selected and randomly divided into a free base group and a polymorph form P group with 6 rats in each group (both male and female). Animals are fasted for 12 h but have free access to water. Weighing is performed and, the administration volume of each rat is calculated according to the animal weight, so that the administration dose is 20 mg/kg·bw. During administration, the drugs are each administrated by gavage, and 0.5% CMC-Na suspension/solution of the above two target drugs are extracted by 2 mL syringe respectively. The gavage needle is inserted into the stomach from the corner of the rat's mouth and pushed the solution thereto.
Blood is collected from the fundus venous plexus of rats at 0.2 mL before (0 h) and 0.5, 1, 2, 4, 6, 8, 12 and 24 h after administration, anticoagulated with 300 IU/mL heparin (1:20) and centrifuged (3000 r/min) for 15 min. After plasma separation, the blood drug concentration of the target drug is determined by HPLC-MS/MS.
Referring to the above-mentioned bioavailability test of the polymorph form P, the bioavailability tests of polymorph forms F, O, B and J are conducted respectively. Different from the bioavailability test of the polymorph form P, rats are given 0.5% CMC-Na solution of the polymorph form F, O, B or J by gavage respectively. Other operations are the same as the above bioavailability test.

[3] = Dynamic solubility test in water, SGF, FeSSIF, FaSSIF; assay type: physicochemical
Experimental: The dynamic solubility of a free base, polymorph forms B, P, F, J and O in water or a biological medium such as Stimulated Gastric Fluid (SGF), Fed State Simulated Intestinal Fluid (FeSSIF) or Fasted State Simulated Intestinal Fluid (FaSSIF) is determined.
0.2 g sodium chloride and 0.1 g Triton X-100 is weighed and placed into a 100 mL volumetric flask. Purified water is added to dissolve. A stir is performed until the solid is completely dissolved. About 135 μL concentrated hydrochloric acid solution (37%, […]) is added, then the pH is adjusted to 1.8 with […] hydrochloric acid or 1 mmoL/L sodium hydroxide. Finally, the volume is fixed with purified water to obtain Stimulated Gastric Fluid (SGF) for later use.
Each of 0.41 mL glacial acetic acid, 0.20 g sodium hydroxide and 0.59 g sodium chloride is weighed and placed to a 50 mL volumetric flask. About 48 mL purified water is added to dissolve, the pH is adjusted to 5.0 with 1 mmoL/L hydrochloric acid or 1 mmoL/L sodium hydroxide, and the volume is fixed with purified water. Then 0.56 g of Simulated Intestinal Fluid powder (SIF powder for short, which is composed of […] with a molar ratio of 4:1) is added, stirred and ultrasonically dissolved to obtain Fed State Simulated Intestinal Fluid (FeSSIF) for later use.
Each of 0.17 g of anhydrous sodium dihydrogen phosphate (NaH2PO4), 0.021 g of sodium hydroxide and 0.31 g of sodium chloride is weighed and placed into a 50 mL volumetric flask. About 48 mL of purified water is added to dissolve, the pH is adjusted to 6.5 with 1 mmoL/L hydrochloric acid or 1 mmoL/L sodium hydroxide, and the volume is fixed with purified water. 0.11 g of SIF powder is added, stirred and ultrasonically dissolved to obtain Fasted State Simulated Intestinal Fluid (FaSSIF) for later use.
Each 30 mg of the free base, and polymorph forms B, P, F, J and O are weighed. 3 mL of purified water, Stimulated Gastric Fluid (SGF), Fed State Simulated Intestinal Fluid (FeSSIF) or Fasted State Simulated Intestinal Fluid (FaSSIF)) is added and oscillated at room temperature. 0.6 mL of suspension is taken each time at a set time point, filtered and separated with a 0.45 μm nylon filter membrane, then XRPD characterization is performed on the solid sample, and the concentration in the clear solution is measured by HPLC.

CNCCCN1c2ccccc2CCc2ccccc21 [desipramine, reference compound]
Behavior duration, Static [1]: 37.5 ± 6.5 s
Behavior duration, Swimming [1]: 143.0 ± 15.5 s
Behavior duration, Wall climbing [1]: 119.5 ± 12.0 s
Number of behaviors, Swimming [1]: 28.6 ± 3.1 times
Number of behaviors, Wall climbing [1]: 23.9 ± 2.4 times
Number of behaviors, Static ([1]; 5 min observation): 7.5 ± 1.3 times

CC1CCN(C(=O)c2ccc([C@H](c3cccc(O)c3)N3C[C@@H](C)N(Cc4cccc(F)c4)C[C@@H]3C)cc2)CC1 [free base]
AUC(0-24h) [2]: 288.6 ng·h/mL
AUC(0-24h) ([2]; listed as Free base): 288.6 ± 64.7 ng·h/mL
Cmax ([2]; listed as Free base): 51.68 ± 6.56 ng/mL
Tmax ([2]; listed as Free base): 3.6 ± 0.9 h
t1/2z ([2]; listed as Free base): 2.4 ± 0.8 h
pH in clear solution ([3]; FaSSIF, Time 1): 6.5
Crystal form of insoluble solid sample ([3]; FaSSIF, Time 1, XRPD): invariability
Solubility ([3]; FaSSIF, Time 1, room temperature): 13 µg/mL (≈ 24.5 µM)
pH in clear solution ([3]; FaSSIF, Time 2): 6.5
Crystal form of insoluble solid sample ([3]; FaSSIF, Time 2, XRPD): invariability
Solubility ([3]; FaSSIF, Time 2, room temperature): 17 µg/mL (≈ 32.1 µM)
pH in clear solution ([3]; FaSSIF, Time 4): 6.5
Crystal form of insoluble solid sample ([3]; FaSSIF, Time 4, XRPD): invariability
Solubility ([3]; FaSSIF, Time 4, room temperature): 16 µg/mL (≈ 30.2 µM)
pH in clear solution ([3]; FaSSIF, Time 24): 6.5
Crystal form of insoluble solid sample ([3]; FaSSIF, Time 24, XRPD): invariability
Solubility ([3]; FaSSIF, Time 24, room temperature): 27 µg/mL (≈ 51 µM)
pH in clear solution ([3]; FeSSIF, Time 1): 4.9
Crystal form of insoluble solid sample ([3]; FeSSIF, Time 1, XRPD): invariability
Solubility ([3]; FeSSIF, Time 1, room temperature): 59 µg/mL (≈ 111 µM)
pH in clear solution ([3]; FeSSIF, Time 2): 5.0
Crystal form of insoluble solid sample ([3]; FeSSIF, Time 2, XRPD): invariability
Solubility ([3]; FeSSIF, Time 2, room temperature): 63 µg/mL (≈ 119 µM)
pH in clear solution ([3]; FeSSIF, Time 4): 5.0
Crystal form of insoluble solid sample ([3]; FeSSIF, Time 4, XRPD): invariability
Solubility ([3]; FeSSIF, Time 4, room temperature): 62 µg/mL (≈ 117 µM)
pH in clear solution ([3]; FeSSIF, Time 24): 5.0
Crystal form of insoluble solid sample ([3]; FeSSIF, Time 24, XRPD): invariability
Solubility ([3]; FeSSIF, Time 24, room temperature): 81 µg/mL (≈ 153 µM)
pH in clear solution ([3]; SGF, Time 1): 1.9
Crystal form of insoluble solid sample ([3]; SGF, Time 1, XRPD): invariability
Solubility ([3]; SGF, Time 1, room temperature): 2100 µg/mL (≈ 3960 µM)
pH in clear solution ([3]; SGF, Time 2): 1.9
Crystal form of insoluble solid sample ([3]; SGF, Time 2, XRPD): invariability
Solubility ([3]; SGF, Time 2, room temperature): 2700 µg/mL (≈ 5100 µM)
pH in clear solution ([3]; SGF, Time 4): 1.9
Crystal form of insoluble solid sample ([3]; SGF, Time 4, XRPD): invariability
Solubility ([3]; SGF, Time 4, room temperature): 2700 µg/mL (≈ 5100 µM)
pH in clear solution ([3]; SGF, Time 24): 2.1
Crystal form of insoluble solid sample ([3]; SGF, Time 24, XRPD): invariability
Solubility ([3]; SGF, Time 24, room temperature): 3200 µg/mL (≈ 6040 µM)
pH in clear solution ([3]; Water, Time 1): 5.6
pH in clear solution ([3]; Water, Time 2): 5.7
Crystal form of insoluble solid sample ([3]; Water, Time 2, XRPD): invariability
Solubility ([3]; Water, Time 2, room temperature): <LOQ
pH in clear solution ([3]; Water, Time 4): 5.6
Crystal form of insoluble solid sample ([3]; Water, Time 4, XRPD): invariability
Solubility ([3]; Water, Time 4, room temperature): <LOQ
pH in clear solution ([3]; Water, Time 24): 5.8
Crystal form of insoluble solid sample ([3]; Water, Time 24, XRPD): invariability
Solubility ([3]; Water, Time 24, room temperature): <LOQ
